The record followed here is ChEMBL document CHEMBL2029326, “Alstiphyllanines I-O, ajmaline type alkaloids from Alstonia macrophylla showing vasorelaxant activity” (Bioorg Med Chem, 2012).

Active and inactive are the calls of the source. The calls are words filed in the database; no cut-off is given here.

Common to all, as to format: functional, tissue-based
Experiment [1] deals with Aorta. Put plainly: Vasorelaxant activity in Wistar rat endothelium-intact thoracic aortic ring assessed as inhibition of phenylephrine-induced contraction at 30 uM measured after 60 mins.
Experiment [2] concerns Aorta. Put plainly: Vasorelaxant activity in Wistar rat endothelium-intact thoracic aortic ring assessed as inhibition of phenylephrine-induced contraction at 30 uM measured within 5 to 15 mins.
The test system of experiment [3] is Aorta. Put plainly: Vasorelaxant activity in Wistar rat endothelium-intact thoracic aortic ring assessed as inhibition of phenylephrine-induced contraction at 100 uM measured after 60 mins.
The test system of experiment [4] is Aorta. Put plainly: Vasorelaxant activity in Wistar rat endothelium-denuded thoracic aortic ring assessed as inhibition of phenylephrine-induced contraction measured after 60 mins.
Experiment [5] relates to Aorta. Put plainly: Vasorelaxant activity in Wistar rat endothelium-denuded thoracic aortic ring assessed as inhibition of phenylephrine-induced contraction measured after 60 mins in presence of 100 uM L-NMMA.
Experiment [6] relates to Aorta. Put plainly: Vasorelaxant activity in Wistar rat endothelium-denuded thoracic aortic ring assessed as inhibition of phenylephrine-induced contraction measured after 60 mins in presence of Bkca inhibitor TEA pretreated for 30 mins before contraction.
For experiment [7], the system named is Aorta. Put plainly: Vasorelaxant activity in Wistar rat endothelium-denuded thoracic aortic ring assessed as inhibition of KCl-induced contraction at 30 uM pretreated for 30 mins measured after 60 mins.
The test system of experiment [8] is Aorta. Put plainly: Vasorelaxant activity in Wistar rat phenylephrine-prestimulated endothelium-denuded thoracic aortic ring assessed as inhibition of CaCl2-induced contraction added before PE-stimulation.

As to `C/C=C1\CN2[C@H]3C[C@@]45c6ccccc6N(C)[C@@H]4[C@@H]2C[C@@H]1[C@@]3(C(=O)OC)C5OC(C)=O` (some centres undefined), the result in the experiment on Aorta [1], with Aorta [2], in the experiment on Aorta [3], in the experiment with Aorta [4], in the experiment on Aorta [7] and in the experiment with Aorta [8] was Active. Besides, the result with Aorta [5] was inactive. The Activity entry in the experiment on Aorta [6] is “Dose-dependent effect”.
As for `C/C=C1\CN2[C@H]3C[C@@]45c6ccccc6N(C(=O)c6ccccc6)[C@@H]4[C@@H]2C[C@@H]1C3(C(=O)OC)[C@H]5O` (some centres undefined), the result with Aorta [1] was Active.
The same measure, in the same setting: under `C/C=C1\C[N+]2([O-])[C@H]3C[C@@H]1[C@]1(C(=O)OC)[C@@H](OC(C)=O)[C@]4(C[C@@H]12)c1ccccc1N(C)[C@H]34` stands “Active”; under `C/C=C1\CN2[C@H]3C[C@@]45c6ccccc6N(C(=O)c6cc(OC)c(OC)c(OC)c6)[C@@H]4[C@@H]2C[C@@H]1C3(C(=O)OC)[C@H]5OC(C)=O` (some centres undefined), “Active”; under `C/C=C1\CN2[C@H]3C[C@@]45c6ccccc6N(C(=O)c6cc(OC)c(OC)c(OC)c6)[C@@H]4[C@@H]2C[C@@H]1C3(C(=O)OC)[C@H]5O` (some centres undefined), “Active”.
Still for that read-out and setting: under `C/C=C1/CN2[C@H]3C[C@@]45c6ccccc6N(C(=O)c6cc(OC)c(OC)c(OC)c6)[C@@H]4[C@@H]2C[C@@H]1C3(C(=O)OC)[C@H]5O` (some centres undefined) stands “Active”.
Still for that read-out and setting: the entry for `C/C=C1\CN2[C@H]3C[C@@]45c6ccccc6N(C(=O)c6ccc(OC)c(OC)c6)[C@@H]4[C@@H]2C[C@@H]1C3(C(=O)OC)[C@H]5OC(C)=O` (relative stereo) is “Active”.
With `C/C=C1\CN2[C@H]3C[C@@]45c6ccccc6N(C(=O)c6ccc(OC)c(OC)c6)[C@@H]4[C@@H]2C[C@@H]1C3(C(=O)OC)[C@H]5O` (some centres undefined), the outcome in the experiment with Aorta [1] was Active.
Still for that read-out and setting: under `C/C=C1\CN2[C@H]3C[C@@]45c6ccccc6N(C)[C@@H]4[C@@H]2C[C@@H]1[C@@]3(C(=O)OC)C5O` (some centres undefined) stands “Active”; under `C/C=C1\CN2[C@H]3C[C@@]45c6ccccc6N(C)[C@@H]4[C@@H]2C[C@@H]1[C@@]3(C(=O)OC)C5OC(=O)c1ccc(OC)c(OC)c1` (some centres undefined), “Active”; under `C/C=C1\C[N+]2([O-])[C@H]3C[C@@H]1[C@@]1(C(=O)OC)C(O)[C@]4(C[C@@H]12)c1ccccc1N(C)[C@H]34` (some centres undefined), “Active”.
On the same count and under the same terms, under `C/C=C1\CN2[C@H]3C[C@@]45c6ccccc6N(C)[C@@H]4[C@@H]2C[C@@H]1[C@@]3(C(=O)OC)C5OC(=O)c1cc(OC)c(OC)c(OC)c1` (some centres undefined) stands “Active”.
